The term IC50 denotes the concentration needed to halve the response being measured. A high value points to lower potency.

The target of test [1] is T1, Estrogen receptor (Homo sapiens, UniProt P03372).
T1 sequence (P03372 whole entry): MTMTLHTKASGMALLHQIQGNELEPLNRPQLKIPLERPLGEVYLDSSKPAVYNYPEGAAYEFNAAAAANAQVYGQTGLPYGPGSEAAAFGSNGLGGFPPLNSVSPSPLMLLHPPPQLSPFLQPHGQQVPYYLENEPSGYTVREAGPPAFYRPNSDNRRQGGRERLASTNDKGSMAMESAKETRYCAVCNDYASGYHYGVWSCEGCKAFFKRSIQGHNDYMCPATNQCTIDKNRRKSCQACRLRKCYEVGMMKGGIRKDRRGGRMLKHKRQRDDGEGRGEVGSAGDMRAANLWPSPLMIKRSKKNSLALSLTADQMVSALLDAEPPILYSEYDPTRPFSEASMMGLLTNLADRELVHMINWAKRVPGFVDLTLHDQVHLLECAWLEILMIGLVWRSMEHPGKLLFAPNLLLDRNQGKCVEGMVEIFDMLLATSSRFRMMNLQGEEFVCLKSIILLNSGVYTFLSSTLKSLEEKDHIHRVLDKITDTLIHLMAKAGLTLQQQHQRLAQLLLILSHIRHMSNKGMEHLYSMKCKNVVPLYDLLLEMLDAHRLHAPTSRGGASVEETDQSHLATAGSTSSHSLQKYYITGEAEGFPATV
Description: Antagonist activity at human ERalpha receptor expressed in HEC1 cells assessed as transcriptional activation after 24 hrs by luciferase reporter gene assay

In test [2] the target is Estrogen receptor beta (Homo sapiens) (UniProt Q92731). Description: Binding affinity to human ERbeta receptor relative to estrogen.
Sequence of Estrogen receptor beta (Homo sapiens) (Q92731 whole entry): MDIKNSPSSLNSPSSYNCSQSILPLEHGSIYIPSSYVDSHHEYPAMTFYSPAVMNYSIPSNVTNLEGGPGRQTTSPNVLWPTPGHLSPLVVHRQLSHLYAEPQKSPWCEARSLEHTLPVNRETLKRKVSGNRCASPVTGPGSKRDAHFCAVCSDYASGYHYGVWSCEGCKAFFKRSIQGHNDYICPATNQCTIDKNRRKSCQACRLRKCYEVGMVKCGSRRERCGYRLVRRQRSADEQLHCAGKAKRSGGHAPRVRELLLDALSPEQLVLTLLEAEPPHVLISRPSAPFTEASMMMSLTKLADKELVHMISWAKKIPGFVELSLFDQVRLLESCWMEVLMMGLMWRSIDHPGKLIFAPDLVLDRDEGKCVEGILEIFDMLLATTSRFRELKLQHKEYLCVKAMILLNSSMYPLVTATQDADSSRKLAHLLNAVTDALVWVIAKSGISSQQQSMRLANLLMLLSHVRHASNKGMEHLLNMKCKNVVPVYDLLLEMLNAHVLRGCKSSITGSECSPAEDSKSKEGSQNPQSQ

In test [1], `Cc1c(-c2ccc(O)cc2)nn(-c2ccc(O)cc2)c1-c1ccc(CCCN2CCCCC2)cc1` yielded an IC50 of 20 nM. The compound also yielded an Activity in test [2] of 0.016%.
On the same counts, the results for `Cc1c(-c2ccc(O)cc2)nn(-c2ccc(O)cc2)c1-c1ccc(/C=C/C(=O)N2CCCCC2)cc1` are 1000 nM and 0.015%.
`Cc1c(-c2ccc(O)cc2)nn(-c2ccc(O)cc2)c1-c1ccc(O)cc1` returned an Activity in test [2] of 0.039%.
Same read-out and setting: in the case of `Cc1c(-c2ccc(O)cc2)nn(-c2ccc(O)cc2)c1-c1ccc(OCCN2CCCCC2)cc1` it was 0.05%.

For the origin of these results see ChEMBL document CHEMBL1139264 (Bioorg Med Chem Lett, 2009).
